Tests used:
Cdc25B = biological target: T1, Cdc25B (Homo sapiens, UniProt P30305); assay: OMFP phosphatase assay, Cdc25B; assay type: biochemical; conditions: n=3, OMFP substrate, 15.2 nM-300 μM; read-out: mean in vitro values, Cdc25B
T1 sequence (P30305 1-580): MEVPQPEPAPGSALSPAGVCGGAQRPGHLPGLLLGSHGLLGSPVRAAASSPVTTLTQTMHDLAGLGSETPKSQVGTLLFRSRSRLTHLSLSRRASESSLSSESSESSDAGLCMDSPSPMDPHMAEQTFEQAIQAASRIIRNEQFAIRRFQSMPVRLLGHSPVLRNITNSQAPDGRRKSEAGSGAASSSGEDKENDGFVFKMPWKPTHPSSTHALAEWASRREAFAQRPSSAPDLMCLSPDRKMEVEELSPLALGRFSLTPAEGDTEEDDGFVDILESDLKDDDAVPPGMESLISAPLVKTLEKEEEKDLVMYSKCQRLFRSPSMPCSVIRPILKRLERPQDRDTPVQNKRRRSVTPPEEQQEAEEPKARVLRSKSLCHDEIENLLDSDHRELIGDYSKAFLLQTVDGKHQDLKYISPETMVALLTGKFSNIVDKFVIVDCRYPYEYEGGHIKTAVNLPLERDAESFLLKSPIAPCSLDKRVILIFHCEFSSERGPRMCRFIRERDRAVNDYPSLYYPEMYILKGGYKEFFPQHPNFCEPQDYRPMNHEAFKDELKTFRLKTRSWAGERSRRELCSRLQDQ
Method: Enzyme activities in the presence or absence of BCI were measured using the artificial substrate […] at concentrations equal to the Km of each enzyme (Cdc25B, PTP1B & Dusp3/VHR) and at optimal pH for individual enzyme activity in a 96-well microtiter plate assay based on previously described methods by Lazo et al. (J Med Chem 44, 4042-9 (2001) and Lazo, J. S. et al. Bioorg Med Chem 14, 5643-50 (2006)). Briefly, the standard assay conditions contained 0.02 mg/ml OMFP in assay buffer (30 mM Tris-HCl (pH8.0), 75 mM NaCl, 1 mM EDTA, 0.33% BSA and 1 mM DTT). Fluorescence emission was measured after a sixty-minute incubation period at ambient temperature using a multiwell plate reader (SpectraMax m5, […]; excitation 485 nm, emission 525 nm). Sodium orthovanadate (100 μM) was used as a positive control for full phosphatase inhibition. IC50 concentrations were determined from three experiments using 10 concentrations of BCI ranging from 300 μM to 15.2 nM and GraphPad Prism 5.0 software.

[1] = system: FGF signaling (Tg(Dusp6:d2EGFP)pt6 reporter); assay: Transgenic zebrafish chemical screen, d2EGFP fluorescence; assay type: in vivo; conditions: for d2EGFP fluorescence in treated transgenic embryos: 24 hpf embryos, 6-8 hours, analogs even at four-fold higher concentrations
Method: Tg(dusp6:d2EGFP)pt6 embryos were obtained by natural crossings and incubated at 28.5° C. until they reached 24 hpf. Five transgenic embryos were placed into each well from a 96-well plate in 200 μl of E3, and a 0.5% DMSO solution was added along with compound from each library at 10 μM. The NCI diversity set (NCl/NIH), the Natural Products library (MicroSource Discovery Systems Inc.) and Phosphatase targeted set (Chembridge) were screened in this study. (E)-2-Benzylidene-3-(cyclohexylamino)-2,3-dihydro-1H-inden-1-one (BCI; also known as NSC150117) was identified as a compound that enhanced fluorescence in treated transgenic embryos. Treated embryos were photographed under the same settings for exposure, gain and magnification for each picture using a MZFLIII (Leica) microscrope and fluorescent illumination for GFP using endow cube (Chroma Technology Corp., Rockingham, Vt.). Qimaging software and the Retiga Exi camera (Qimaging, Burnaby, BC Canada) were used to capture the images.
(§1) We previously described the generation of a transgenic zebrafish line, (Tg(Dusp6:d2EGFP)pt6) that expresses destabilized green fluorescent protein (d2EGFP) under the control of FGF signaling (Molina, G. A., et al. BMC Dev Biol 7, 62 (2007)). Using Tg(Dusp6:d2EGFP) embryos as a biosensor for FGF signaling, we screened over 5000 diverse compounds assembled from chemical libraries for small molecule modulators of this pathway. Five transgenic embryos at 24 hours post fertilization (hpf) were arrayed into each well of a 96-well plate containing test compounds at 10 μM. d2EGFP intensity in treated embryos was visually analyzed and compared to vehicle control (0.5% DMSO) after 6-8 hours. […] To confirm that BCI hyperactivated FGF signaling, we treated embryos prior to gastrulation (5 hpf), and we analyzed by whole mount in situ hybridization, the expression of ntl (zebrafish brachyury), a known FGF target gene (Latinkic, B. V. et al. Genes Dev 11, 3265-76 (1997)). […] We next determined the BCI structural features required to enhance FGF signaling. Two analogs, (E)-2-benzylidene-2,3-dihydro-1H-inden-1-one (BI) lacking the cyclohexylamino group, and 3-(cyclohexylamino)-2,3-dihydro-1H-inden-1-one (ICD) lacking the benzylidene group were synthesized).

FGF target genes = assay: Whole mount in situ hybridization of FGF target genes in treated embryos; assay type: in vivo, zebrafish
Method: In situ hybridization experiments were carried out as described previously (Kudoh, T. et al. Genome Res 11, 1979-87 (2001)). The probes eng3, krox20, sef, dusp6, gata4, nkx2.5, cmlc2, vmhc, scl, etsrp and hand2 were generated with a RNA labeling kit (Roche) (Tsang, M. et al. Development 131, 2769-79 (2004); Chen, J. N. et al. Development 122, 3809-16 (1996); Ekker, M., et al. Development 116, 1001-10 (1992); Liao, E. C. et al. Genes Dev 12, 621-6 (1998); Oxtoby, E. et al. Nucleic Acids Res 21, 1087-95 (1993); Pham, V. N. et al. Dev Biol 303, 772-83 (2007); Tsang, M., et al. Nat Cell Biol 4, 165-9 (2002); Yelon, D., et al. Dev Biol 214, 23-37 (1999); and Yelon, D. et al. Development 127, 2573-82 (2000)). The double fluorescent in situ hybridization protocol was described by Schoenbeck et al. (Dev Cell 13, 254-67 (2007)). Fluorescent in situ hybridizations were visualized by confocal microscopy. Single optical sections and z-series of flat-mounted stained embryos were collected with a confocal laser scan head (SP5, Leica Microsystems, Inc.) mounted on an inverted compound microscope (DM16000, Leica Microsystems, Inc.). Images were scanned and compiled with NIH ImageJ software (rsb.info.nih.gov/ij/).
as §1, with “Using Tg(Dusp6:d2EGFP) embryos as a biosensor for FGF signaling, we screened over 5000 diverse compounds assembled from chemical libraries for small molecule modulators of this pathway.” left out, “Two analogs, (E)-2-benzylidene-2,3-dihydro-1H-inden-1-one (BI) lacking the cyclohexylamino group, and 3-(cyclohexylamino)-2,3-dihydro-1H-inden-1-one (ICD) lacking the benzylidene group were synthesized).” left out

Row | Compound | IC50 (Cdc25B) [µM] | d2EGFP fluorescence in treated transgenic embryos [1] | d2EGFP expression in the MHB of Tg(Dusp6:d2EGFP); ace mutant embryos ([1]; BCI 10 μM, Fgf8-deficient embryos) | expression of ntl (FGF target genes; treated prior to gastrulation (5 hpf), 6-somite stage) | expression of engrailed3 (eng3) and krox20 (FGF target genes; treatment during somitogenesis) | expression of dusp6 (FGF target genes; treatment from the 1- to 10-somite stage)
1 | O=C1/C(=C/c2ccccc2)C(NC2CCCCC2)c2ccccc21 (stereo not shown) [Compound 3, (E)-2-benzylidene-3-(cyclohexylamino)-2,3-dihydro-1H-inden-1-one] | > 300 | enhanced d2EGFP fluorescence in a concentration-dependent manner | did not induce d2EGFP expression | greatly expanded | increased expression | marked increase
2 | O=C1CC(NC2CCCCC2)c2ccccc21 (stereo not shown) [Compound 17, 3-(Cyclohexylamino)-2,3-dihydro-1H-inden-1-one] |  | inactive |  |  |  | 

From US9127016B2, “Small molecule inhibitors of Dusp6 and uses therefor” (University of Pittsburgh—Of the Commonwealth System of …, priority 2009, dated 2015)
